In patent US4352803A, “Novel naphthyridine derivatives, intermediates thereof, processes for preparation thereof, and use thereof” (Dainippon Pharmaceutical Co., Ltd., priority 1978, dated 1982):
≈ marks a conversion by molar mass, not a printed value.

Experiments:
[1] = tested on: Enterobacter cloacae P-2540; assay: In vitro antibacterial activity (MIC), Enterobacter cloacae P-2540; assay type: cell-based; settings: P2540; Enterobacter cloacae P-2540; read-out: minimum inhibitory concentration (MIC)
Excerpt: (§1) (MIC) (μg/ml) Method; Chemotherapy, 22(6), 1126 (1974)

Shigella flexneri 2a = assay: In vitro antibacterial activity (MIC), Shigella flexneri 2a; assay type: cell-based; settings: read-out: minimum inhibitory concentration (MIC)
Excerpt: as §1

[2] = tested on: Corynebacterium pyogenes C-21; assay: In vitro antibacterial activity (MIC), Corynebacterium pyogenes C-21; assay type: cell-based; settings: Rhodococcus (subgen. Prescottella) equi, C21; Corynebacterium pyogenes C-21; read-out: minimum inhibitory concentration (MIC)
Excerpt: as §1

Plasma level in dogs = assay type: in vivo, Beagle dogs
Protocol: Two male Beagle dogs weighing 12 kg each were orally given a capsule containing one of compounds 1 and 2 at a dose of 25 mg/kg with 200 ml of milk respectively. Blood samples were taken by venipuncture from the two dogs at each 0.5, 1, 2, 3, 6, 8 and 10 hours after administration, and centrifuged individually to separate the plasma.
Drug levels were determined by the thin-layer cup-plate method using Escherichia coli Kp as an indicator organism.

[3] = tested on: Gram-positive bacteria and Gram-negative bacteria; assay: In vitro antibacterial activity against 19 strains of bacteria (overall); assay type: cell-based; settings: comparisons are with compounds of the invention
Excerpt: as §1

in vivo = settings: mouse, in vivo, po
Protocol: The number of dead mice was counted after 7 days, and the value of median lethal dose (LD50, mg/kg) was calculated in accordance with the Behrens-Kaerber method.

[4] = tested on: Pseudomonas aeruginosa No. 12; assay: in vivo efficacy against systemic infection in mice, Pseudomonas aeruginosa No. 12; settings: NO.12, in Mus musculus, po, 168 h
Protocol: Male mice (ddY) weighing about 20 g
(3) Pseudomonas aeruginosa No. 12;
(about 5 × 10^3 cells/mouse) of a bacterial
(§2) suspension in trypto-soy broth with 4% mucin.
(§3) Twice, about 5 minutes and 6 hours after infection.
The numerals in the table show ED50 (mg/kg). ED50 values were

[5] = tested on: Klebsiella pneumoniae No. 13; assay: In vitro antibacterial activity (MIC), Klebsiella pneumoniae No. 13; assay type: cell-based; settings: Klebsiella pneumoniae No. 13; read-out: minimum inhibitory concentration (MIC)
Excerpt: as §1

Proteus mirabilis P-2381 = assay: In vitro antibacterial activity (MIC), Proteus mirabilis P-2381; assay type: cell-based; settings: Proteus mirabilis, P2381, read-out: minimum inhibitory concentration (MIC)
Excerpt: as §1

[6] = tested on: Staphylococcus aureus No. 50774; assay: In vitro antibacterial activity (MIC), Staphylococcus aureus No. 50774; assay type: cell-based; settings: Staphylococcus aureus No. 50774; read-out: minimum inhibitory concentration (MIC)
Excerpt: as §1

[7] = tested on: Staphylococcus aureus No. 50774; assay: in vivo efficacy against systemic infection in mice, Staphylococcus aureus No. 50774; settings: NO.50774, in Mus musculus, po, 336 h
Protocol: Male mice (ddY) weighing about 20 g
Intravenous infection with (about
5 × 10^8 cells/mouse) of a bacterial
as §3

[8] = tested on: Streptococcus faecalis P-2473; assay: In vitro antibacterial activity (MIC), Streptococcus faecalis P-2473; assay type: cell-based; settings: Enterococcus faecalis, P2473; Streptococcus faecalis P-2473; read-out: minimum inhibitory concentration (MIC)
Excerpt: as §1

[9] = tested on: Shigella flexneri 4a P-330; assay: In vitro antibacterial activity (MIC), Shigella flexneri 4a P-330; assay type: cell-based; settings: 4AP330, read-out: minimum inhibitory concentration (MIC)
Excerpt: as §1

[10] = tested on: Salmonella enteritidis No. 1891; assay: In vitro antibacterial activity (MIC), Salmonella enteritidis No. 1891; assay type: cell-based; settings: Salmonella enterica; Salmonella enteritidis No. 1891; read-out: minimum inhibitory concentration (MIC)
Excerpt: as §1

[11] = tested on: Escherichia coli NIHJ JC-2; assay: In vitro antibacterial activity (MIC), Escherichia coli NIHJ JC-2; assay type: cell-based; settings: NIHJJC2; Escherichia coli NIHJ JC-2; read-out: minimum inhibitory concentration (MIC)
Excerpt: as §1

[12] = tested on: Pseudomonas aeruginosa No. 12; assay: In vitro antibacterial activity (MIC), Pseudomonas aeruginosa No. 12; assay type: cell-based; settings: Pseudomonas aeruginosa No. 12; read-out: minimum inhibitory concentration (MIC)
Excerpt: as §1

[13] = Urinary excretion in dogs; assay type: in vivo, Beagle dogs
[14] = tested on: Gram-positive and Gram-negative bacteria; assay: in vivo therapeutic efficacy against systemic infections in mice (overall); parameters: species or system mice (ddY)
[15] = tested on: Streptococcus pyogenes 65A; assay: In vitro antibacterial activity (MIC), Streptococcus pyogenes 65A; assay type: cell-based; settings: Streptococcus pyogenes 65A; read-out: minimum inhibitory concentration (MIC)
Excerpt: as §1

[16] = tested on: Pseudomonas aeruginosa No. 12; assay: in vivo efficacy on the ascending kidney infection in mice; parameters: species or system mice (ddY-S)
Protocol: Female mice (ddY-S) weighing 22 to 30 g were anesthetized by intravenous injection of sodium pentobarbital at a dose of 50 mg/kg. Through a small suprapubic incision, the urinary bladder was exposed and then infected by injecting 0.1 ml of a 1:10,000 dilution of Pseudomonas aeruginosa No. 12 cultured for 20 hours in trypto-soy broth, using 0.25 ml syringe with 0.25 mm needle. The mice were restrained from drinking water for a period from 1 day before to 1 day after the infection and treated twice a day for 3 days starting on the day of infection. On the 5th day after infection, the kidneys were harvested for the detection of the bacteria, transversely bisected and stamped on King A Agar, which were incubated at 37° C. overnight. No bacterial finding in the kidneys was regarded as protected from the ascending kindey infection. ED50 values were calculated by probit analysis.

[17] = tested on: Salmonella typhimurium 8-9; assay: In vitro antibacterial activity (MIC), Salmonella typhimurium 8-9; assay type: cell-based; settings: Salmonella enterica; Salmonella typhimurium 8-9; read-out: minimum inhibitory concentration (MIC)
Excerpt: as §1

Proteus morganii Kono = assay: In vitro antibacterial activity (MIC), Proteus morganii Kono; assay type: cell-based; settings: Morganella morganii; Proteus morganii Kono; read-out: minimum inhibitory concentration (MIC)
Excerpt: as §1

Escherichia coli P-5101 [18] = assay: In vitro antibacterial activity (MIC), Escherichia coli P-5101; assay type: cell-based; settings: P5101; Escherichia coli P-5101; read-out: minimum inhibitory concentration (MIC)
Excerpt: as §1

[19] = tested on: Serratia marcescens IFC 3736; assay: In vitro antibacterial activity (MIC), Serratia marcescens IFC 3736; assay type: cell-based; settings: Serratia marcescens, IFC3736, read-out: minimum inhibitory concentration (MIC)
Excerpt: as §1

[20] = tested on: Staphylococcus aureus 209P JC-1; assay: In vitro antibacterial activity (MIC), Staphylococcus aureus 209P JC-1; assay type: cell-based; settings: Staphylococcus aureus 209P JC-1; read-out: minimum inhibitory concentration (MIC)
Excerpt: as §1

[21] = tested on: Pseudomonas aeruginosa Tsuchijima; assay: In vitro antibacterial activity (MIC), Pseudomonas aeruginosa Tsuchijima; assay type: cell-based; settings: Pseudomonas aeruginosa, read-out: minimum inhibitory concentration (MIC)
Excerpt: as §1

Escherichia coli P-140a = assay: In vitro antibacterial activity (MIC), Escherichia coli P-140a; assay type: cell-based; settings: P140A; Escherichia coli P-140a; read-out: minimum inhibitory concentration (MIC)
Excerpt: as §1

Escherichia coli P-5101 [22] = assay: in vivo efficacy against systemic infection in mice, Escherichia coli P-5101; settings: P5101, in Mus musculus, po, 168 h
Protocol: Male mice (ddY) weighing about 20 g
Intraperitoneal infection with (about
9 × 10^6 cells/mouse) of a bacterial
as §2, §3

## C=Cn1cc(C(=O)O)c(=O)c2cc(F)c(N3CCNCC3)nc21 [Compound 2, 6-Fluoro-1,4-dihydro-4-oxo-7-(1-piperazinyl)-1-vinyl-1,8-naphthyridine-3-carboxylic acid]
[1]
  MIC: 1 µg/mL (≈ 3.14 µM)
Shigella flexneri 2a
  MIC: 0.1 µg/mL (≈ 0.314 µM)
[2]
  MIC: 1.56 µg/mL (≈ 4.9 µM)
Plasma level in dogs; dog, plasma, 2 hr after oral 25 mg/kg
  concentration at 2 h: 1500 ng/mL
Plasma level in dogs; dog, plasma, 3 hr after oral 25 mg/kg
  concentration at 3 h: 2800 ng/mL
Plasma level in dogs; dog, plasma, 6 hr after oral 25 mg/kg
  concentration at 6 h: 5500 ng/mL
Plasma level in dogs; dog, plasma, 8 hr after oral 25 mg/kg
  concentration at 8 h: 5200 ng/mL
Plasma level in dogs; dog, plasma, 10 hr after oral 25 mg/kg
  concentration at 10 h: 4400 ng/mL
Plasma level in dogs; oral 25 mg/kg
  absorption in the body by oral administration (in words): well absorbed
  period after administration with plasma level higher than the MIC values against most bacteria: at least 2 hours to even more than 10 hours
[3]
  antibacterial activity (in words): very high antibacterial activities
In vivo
  LD50 at 168 h: > 4000 mg/kg
[4]
  ED50: 2.4 mg/kg
[5]
  MIC: 0.1 µg/mL (≈ 0.314 µM)
Proteus mirabilis P-2381
  MIC: 0.2 µg/mL (≈ 0.628 µM)
[6]
  MIC: 3.13 µg/mL (≈ 9.83 µM)
[7]
  ED50: 33.4 mg/kg
[8]
  MIC: 25 µg/mL (≈ 78.5 µM)
[9]
  MIC: 0.2 µg/mL (≈ 0.628 µM)
[10]
  MIC: 0.05 µg/mL (≈ 0.157 µM)
[11]
  MIC: 0.1 µg/mL (≈ 0.314 µM)
[12]
  MIC: 0.39 µg/mL (≈ 1.23 µM)
[13]; 24 hours
  urinary excretion (in words): fairly good
[13]; dog, urine, po, 25 mg/kg, urine pooled over 24 hours, oral 25 mg/kg
  concentration at 24 h: 326000 ng/mL
[13]; dog, urine, po, 25 mg/kg, urine pooled over 24 hours, oral 25 mg/kg, read-out: urinary recovery
  dose excreted at 24 h: 29.4%
[14]; Gram-negative including Pseudomonas aeruginosa
  therapeutic effect in vivo against Gram-negative bacteria, relative to compound D: clearly better
[14]; systemic infection, Gram-negative
  therapeutic effect against Gram-negative bacteria, relative to compound 1 or 1': superior
[14]; systemic infection, Gram-negative, especially Pseudomonas aeruginosa
  therapeutic effect against Gram-negative bacteria, relative to compounds A, C, E, F, G, H and J: better therapeutic effects
[14]; systemic infection, Gram-positive
  therapeutic effect against Gram-positive bacteria, relative to compound 1 or 1': inferior
[15]
  MIC: 12.5 µg/mL (≈ 39.3 µM)
[16]; 120 h, ascending kidney infection with Pseudomonas aeruginosa No. 12, po, mice
  ED50: 0.56 mg/kg
[16]; compounds 1 and 2 (1, 1' and 2 elsewhere in the source) compared with compound D
  therapeutic effect against ascending kidney infection (in words): clearly better than that of compound D
[17]
  MIC: 0.05 µg/mL (≈ 0.157 µM)
Proteus morganii Kono
  MIC: 0.1 µg/mL (≈ 0.314 µM)
Escherichia coli P-5101 [18]
  MIC: 0.05 µg/mL (≈ 0.157 µM)
[19]
  MIC: 0.2 µg/mL (≈ 0.628 µM)
[20]
  MIC: 1.56 µg/mL (≈ 4.9 µM)
[21]
  MIC: 0.2 µg/mL (≈ 0.628 µM)
Escherichia coli P-140a
  MIC: 0.1 µg/mL (≈ 0.314 µM)
Escherichia coli P-5101 [22]
  ED50: 1.3 mg/kg
